Legend:
[1] = target: T1, chitin synthase 1 of Candida albicans chs2 Δ chs 3 Δ (Candida albicans, UniProt P23316); experiment: In vitro enzyme assay for chitin synthase 1 of Candida albicans (enzyme 1); format: biochemical; conditions: relative to polyoxin D (50% inhibitory activity = value 5)
T1 construct: Crude enzyme was prepared using the Candida albicans chs2 Δ chs 3 Δ mutant; endogenous in cells; host or cells: Candida albicans chs2Δ/chs2Δ chs3Δ/chs3Δ mutant; 130,000 x g membrane pellet
Method in brief: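 Crude membrane enzyme from the C. albicans chs2Δ chs3Δ strain was trypsin-activated for 15 min at 30 °C. Reaction: 32 mM Tris-HCl pH 7.5, 2 mM cobalt acetate, 1.1 mM UDP-[14C]GlcNAc, 90 min at 30 °C; TCA-insoluble radioactivity counted. Scored 1–8 by relative polyoxin D concentration (5 = equal).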

[2] = target: T2, chitin synthase 2 of Saccharomyces cerevisiae ECY38-38A(pAS6) (Saccharomyces cerevisiae, UniProt P14180); experiment: In vitro enzyme assay for chitin synthase 2 of Saccharomyces cerevisiae (enzyme 2); format: biochemical; conditions: relative to polyoxin D (50% inhibitory activity = value 5)
T2 construct: made in house; host or cells: Saccharomyces cerevisiae ECY38-38A (chs1-23 chs2::LEU2 cal1/csd2) carrying plasmid pAS6, grown in galactose medium; 130,000 x g membrane pellet
Method in brief: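 Crude membrane chitin synthase 2 came from S. cerevisiae ECY38-38A(pAS6), expressing only CHS2, and was trypsin-activated (15 min, 30 °C) then trypsin-inhibited. The reaction ran in 32 mM Tris-HCl pH 7.5, 2 mM cobalt acetate, 1.1 mM UDP-[14C]-GlcNAc, 90 min at 30 °C. TCA-precipitated product was counted by scintillation; scores 1–8 reflect concentration relative to polyoxin D's 50% inhibition (score 5).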

[3] = tested on: Aspergillus flavus ATCC 64025; experiment: In vitro antifungal activity (MIC), NCCLS method; format: cell-based; conditions: 48 hours
Method in brief: (§1)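 Test samples were serially diluted two-fold, then inoculated with fungus to a final cell density of 5×10^2 to 2.5×10^3 cell/mL, following the NCCLS method. Plates were cultured for 48 hours and the minimum inhibitory concentration recorded.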

[4] = tested on: Aspergillus fumigatus ATCC 16424; experiment: In vitro antifungal activity (MIC), NCCLS method; format: cell-based; conditions: 48 hours
Method in brief: as §1

[5] = tested on: Aspergillus terreus ATCC 46941; experiment: In vitro antifungal activity (MIC), NCCLS method; format: cell-based; conditions: 48 hours
Method in brief: as §1

[6] = tested on: Candida albicans A207 (clinical isolate); experiment: In vitro antifungal activity (MIC), NCCLS method; format: cell-based; conditions: 48 hours
Method in brief: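 Two-fold dilutions, final inoculum 5×10^2–2.5×10^3 cell/mL, NCCLS protocol; 48 h culture for these strains. MIC = minimum inhibitory concentration.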

[7] = tested on: Candida albicans ATCC 10231; experiment: In vitro antifungal activity (MIC), NCCLS method; format: cell-based; conditions: 48 hours
Method in brief: (§2)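 Broth MIC by NCCLS two-fold dilution, final inoculum 5×10^2 to 2.5×10^3 cell/mL. Candida and Mucor strains incubated 48 hours.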

[8] = tested on: Candida glabrata ATCC 48435; experiment: In vitro antifungal activity (MIC), NCCLS method; format: cell-based; conditions: Candida glabrata ATCC 48435; 48 hours
Method in brief: as §2

Candida krusei ATCC 6258 = experiment: In vitro antifungal activity (MIC), NCCLS method; format: cell-based; conditions: 48 hours
Method in brief: as §2

[9] = tested on: Candida lusitaniae ATCC 42720; experiment: In vitro antifungal activity (MIC), NCCLS method; format: cell-based; conditions: 48 hours
Method in brief: as §2

[10] = tested on: Candida parapsilosis ATCC 34136; experiment: In vitro antifungal activity (MIC), NCCLS method; format: cell-based; conditions: Candida parapsilosis ATCC 34136; 48 hours
Method in brief: as §2

[11] = tested on: Candida tropicalis ATCC 13803; experiment: In vitro antifungal activity (MIC), NCCLS method; format: cell-based; conditions: 48 hours
Method in brief: as §2

[12] = tested on: Cryptococcus neoformans ATCC 36556; experiment: In vitro antifungal activity (MIC), NCCLS method; format: cell-based; conditions: RPMI 1640 medium, 72 hours
Method in brief: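 Broth microdilution per NCCLS: two-fold serial dilutions of test compound inoculated with fungal suspension at a final 5×10^2 to 2.5×10^3 cell/mL. Strains other than Cryptococcus neoformans were incubated 48 hours before MIC reading.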

[13] = tested on: Mucor ramosissimus ATCC 90286; experiment: In vitro antifungal activity (MIC), NCCLS method; format: cell-based; conditions: 48 hours
Method in brief: as §2

human pathogenic fungi = experiment: Antifungal activity against human pathogenic fungi (summary statements); format: cell-based
Source text: Candida albicans ATCC 10231, Candida lusitaniae ATCC 42720, Candida krusei ATCC 6258, Candida tropicalis ATCC 13803, Candida glabrata ATCC 48435, Candida parapsilosis ATCC 34136, Cryptococcus neoformans ATCC 36556, Aspergillus fumigatus ATCC 16424, Aspergillus flavus ATCC 64025, Aspergillus terreus ATCC 46941 and Mucor ramosissimus ATCC 90286 strains for the MIC (minimum inhibitory concentration) measurement were obtained from ATCC (American Type Culture Collection) in the U.S. The Candida albicans A207(clinical isolate) strain was used by isolating it from the patients.
The determination of MIC was performed according to the NCCLS (National Committee for Clinical Laboratory Standard) method. Each test sample solution was diluted two-fold and inoculated with a fungal suspension to reach a final inoculum size of 5×10^2 to 2.5×10^3 cell/mL. The Cryptococcus neoformans strain was cultured in the RPMI 1640 medium for 72 hours. Other strains were cultured for 48 hours.

chitin synthases = experiment: Inhibitory activity against the chitin synthases (summary statements); format: biochemical
Source text: The inhibitory activities against the chitin synthase 1 of Candida albicans chs2 Δ chs 3 Δ (abbreviated as ‘enzyme 1’) and the chitin synthase 2 of Saccharomyces cerevisiae ECY38-38A(pAS6)(abbreviated as ‘enzyme 2’) was examined for compound Nos. 1 to 70 compound and polyoxin D, a positive control compound.
The inhibitory activity against the chitin synthase 1 prepared from Candida albicans and the chitin synthase 2 prepared from Saccharomyces cerevisiae were examined as follows. A reaction mixture containing 32 mM Tris-HCl (pH 7.5), 2 mM cobalt acetate, 1.1 mM UDP-[U-^14C]-N-acetyl-d-glucosamine (GlcNAc) (400,000 cpm/μmol), 2 μL of trypsin (0.75 mg/mL), 20 μL of each crude enzyme and 14 μL of each test sample was kept at 30° C. for 15 minutes to activate the enzyme. Then, 2 μL of trypsin inhibitor (1.5 mg/mL) was added and the mixture was kept in an ice bath for 10 minutes to deactivate trypsin. 2 μL of 0.8 M N-acetyl-d-glucosamine was added to a total volume of 50 μL and reaction was performed at 30° C. for 90 minutes. The reaction was stopped using 1 mL of 10% TCA solution and the reaction solution was filtered with a GF/C filter and dried at room temperature. After adding 3 mL of a scintillation cocktail solution, the amount of isotopes was measured using a liquid scintillation counter. Percentage inhibition against each enzyme was calculated by the following Equation 1.

T2 sequence (P14180 whole entry): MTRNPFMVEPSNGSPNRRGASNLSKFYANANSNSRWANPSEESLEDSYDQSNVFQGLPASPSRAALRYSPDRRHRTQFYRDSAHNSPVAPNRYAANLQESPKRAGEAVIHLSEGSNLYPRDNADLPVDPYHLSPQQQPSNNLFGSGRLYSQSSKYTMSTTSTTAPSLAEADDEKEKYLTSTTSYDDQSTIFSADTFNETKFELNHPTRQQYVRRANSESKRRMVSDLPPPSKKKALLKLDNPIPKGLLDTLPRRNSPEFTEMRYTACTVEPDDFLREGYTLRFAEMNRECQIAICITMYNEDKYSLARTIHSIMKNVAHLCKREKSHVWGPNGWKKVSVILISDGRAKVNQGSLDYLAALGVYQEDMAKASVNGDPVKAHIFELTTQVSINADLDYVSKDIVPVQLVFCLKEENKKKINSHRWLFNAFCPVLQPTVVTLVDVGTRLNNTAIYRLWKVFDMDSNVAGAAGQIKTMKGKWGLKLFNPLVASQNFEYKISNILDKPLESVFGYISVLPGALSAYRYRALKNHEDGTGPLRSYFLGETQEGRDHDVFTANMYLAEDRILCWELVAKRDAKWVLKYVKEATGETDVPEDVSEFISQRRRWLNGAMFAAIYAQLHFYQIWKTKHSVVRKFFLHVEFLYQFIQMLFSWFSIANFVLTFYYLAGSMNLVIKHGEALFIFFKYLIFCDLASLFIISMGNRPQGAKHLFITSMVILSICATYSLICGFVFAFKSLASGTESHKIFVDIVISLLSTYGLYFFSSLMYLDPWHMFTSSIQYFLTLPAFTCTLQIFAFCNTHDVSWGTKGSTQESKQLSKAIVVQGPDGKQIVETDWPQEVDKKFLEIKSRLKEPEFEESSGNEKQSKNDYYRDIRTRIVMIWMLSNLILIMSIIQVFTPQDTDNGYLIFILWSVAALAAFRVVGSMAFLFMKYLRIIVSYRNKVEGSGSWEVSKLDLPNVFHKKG
T1 sequence (P23316 whole entry, stated change not applied): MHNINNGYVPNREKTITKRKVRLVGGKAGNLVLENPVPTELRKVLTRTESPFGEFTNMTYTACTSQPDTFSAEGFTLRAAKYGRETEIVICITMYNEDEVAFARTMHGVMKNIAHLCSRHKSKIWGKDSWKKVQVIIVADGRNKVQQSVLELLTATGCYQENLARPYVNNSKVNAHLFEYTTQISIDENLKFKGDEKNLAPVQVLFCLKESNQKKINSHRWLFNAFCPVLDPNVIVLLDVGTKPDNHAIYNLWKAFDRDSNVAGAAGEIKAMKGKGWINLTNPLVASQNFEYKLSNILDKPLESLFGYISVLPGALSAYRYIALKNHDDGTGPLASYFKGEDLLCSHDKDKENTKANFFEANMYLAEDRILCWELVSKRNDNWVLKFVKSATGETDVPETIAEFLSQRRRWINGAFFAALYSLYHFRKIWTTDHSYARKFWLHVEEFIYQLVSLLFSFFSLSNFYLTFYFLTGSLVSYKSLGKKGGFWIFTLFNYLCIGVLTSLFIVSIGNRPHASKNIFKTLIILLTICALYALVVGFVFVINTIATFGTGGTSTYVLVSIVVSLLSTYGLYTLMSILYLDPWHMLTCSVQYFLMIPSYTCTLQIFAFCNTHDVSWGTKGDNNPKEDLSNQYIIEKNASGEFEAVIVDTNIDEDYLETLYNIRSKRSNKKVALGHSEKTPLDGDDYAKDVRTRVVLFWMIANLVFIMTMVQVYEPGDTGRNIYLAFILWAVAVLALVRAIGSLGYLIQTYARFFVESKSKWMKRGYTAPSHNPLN

Compound | Relative activity Enzyme 1 [1] | Relative activity Enzyme 2 [2] | MIC (minimum inhibitory concentration) [3] [µg/mL] | MIC (minimum inhibitory concentration) [4] [µg/mL] | MIC (minimum inhibitory concentration) [5] [µg/mL] | MIC (minimum inhibitory concentration) [6] [µg/mL] | MIC (minimum inhibitory concentration) [7] [µg/mL] | MIC (minimum inhibitory concentration) [8] [µg/mL] | MIC (minimum inhibitory concentration) (Candida krusei ATCC 6258) [µg/mL] | MIC (minimum inhibitory concentration) [9] [µg/mL] | MIC (minimum inhibitory concentration) [10] [µg/mL] | MIC (minimum inhibitory concentration) [11] [µg/mL] | MIC (minimum inhibitory concentration) [12] [µg/mL] | MIC (minimum inhibitory concentration) [13] [µg/mL] | antifungal activities compared with amphotericin B (in words) (human pathogenic fungi) | inhibitory activities against the chitin synthases (in words) (chitin synthases) | MIC (human pathogenic fungi; berberrubine, the starting material, strains not specified) [µg/mL]
13-(4-tert-Butylbenzyl)-9-O-propylberberrubine iodide [Compound No. 7] | 4 (Compounds having the inhibitory activity at 2-fold, 4-fold, 8-fold and 16-fold higher concentrations than that of polyoxin D were given the values of 4, 3, 2 and 1, respectively) | 7 (compounds having the inhibitory activity at ½, ¼ and ⅛ lower concentrations than that of polyoxin D were given the values of 6, 7 and 8, respectively) | 8 | 4 | 8 | 1 | 1 | 4 | 2 | 2 | 4 | 0.5 | 2 | 4 | comparable to that of amphotericin B | exceptionally superior inhibitory activities | –
COc1ccc2cc3[n+](cc2c1O)CCc1cc2c(cc1-3)OCO2 [berberrubine] | – | – | – | – | – | – | – | – | – | – | – | – | – | – | – | – | 256 to 512
13-(4-Isopropylbenzyl)-9-O-allylberberrubine iodide [Compound No. 23] | 2 (Compounds having the inhibitory activity at 2-fold, 4-fold, 8-fold and 16-fold higher concentrations than that of polyoxin D were given the values of 4, 3, 2 and 1, respectively) | 5 (A compound having the same inhibitory activity as that of polyoxin D at the same concentration was given the value 5) | 8 | 8 | 8 | 1 | 1 | 8 | 2 | 2 | 4 | 1 | 2 | 4 | – | – | –
13-(4-isopropylbenzyl)-9-O-crotylberberrubine chloride [Compound No. 56] | 2 (Compounds having the inhibitory activity at 2-fold, 4-fold, 8-fold and 16-fold higher concentrations than that of polyoxin D were given the values of 4, 3, 2 and 1, respectively) | 6 (compounds having the inhibitory activity at ½, ¼ and ⅛ lower concentrations than that of polyoxin D were given the values of 6, 7 and 8, respectively) | 8 | 2 | 4 | 0.5 | 0.5 | 4 | 1 | 1 | 4 | 0.5 | 1 | 4 | – | – | –
13-(4-tert-Butylbenzyl)-9-O-octylberberrubine chloride [Compound No. 42] | 3 (Compounds having the inhibitory activity at 2-fold, 4-fold, 8-fold and 16-fold higher concentrations than that of polyoxin D were given the values of 4, 3, 2 and 1, respectively) | 6 (compounds having the inhibitory activity at ½, ¼ and ⅛ lower concentrations than that of polyoxin D were given the values of 6, 7 and 8, respectively) | 4 | 2 | 4 | 0.25 | 0.25 | 1 | 1 | 0.5 | 1 | 0.125 | 0.5 | 2 | – | – | –
